Test results taken from US10174081B2, “Antimicrobial peptides and uses therefore” (priority 2011, dated 2019).
Converted amounts (≈) assume the structure as drawn. “And” between values parts separate entries of the source, which are not always exact repeats. Equal values may be shown once. Square brackets hold non-standard residues; d marks the D form. Ends that are not written are not given here. Peptide text beside a SMILES is read from it.

How the values were obtained:
[1] = tested on: E. coli (ATCC 25922); assay: Anti-microbial performance against E. coli, with and without FICOLL 70; type: cell-based, Escherichia coli; conditions: for Average EC50, E. coli: unit inferred; for fold increase in potency against E. coli: 20% FICOLL 70 versus none; for Anti-microbial performance of ATRA-1A isomers (EC50) E coli (ATCC 25922): Example 5, Table 9
Method: In these assays, bacteria (1×10^5 CFU/ml) were incubated for 3 hours at 37° C. with varied concentrations of peptide in 10 mM phosphate buffer (pH 7.4) containing 0 to 30% FICOLL™ 70. The potencies of the peptide isomers were determined by plotting bacterial survival (%) as a function of log peptide concentration and fitting the data to a standard dose response equation. Each experiment was conducted at least three times, with the exception of experiments with 15% and 30% FICOLL™, which were only performed once.

[2] = tested on: C. albicans (ATCC 14053); assay: Anti-microbial assay (CFU survival, EC50) against C. albicans; type: cell-based, Candida albicans; conditions: for EC50 against C. albicans: 3 hours, 37° C., 10 mM sodium phosphate pH 7.4, inconsistent colony growth; for Inhibition of C. albicans: at 500 and 100 μg; for EC50: converted with molecular weight
Method: C. albicans (ATCC 14053) was grown up in 25 mL of Sabouraud Dextrose (SO) broth for 48 hours at 25° C., after which samples were aliquoted into 2 mL microcentrifuge tubes at 0.5 mL.
On a 96-well plate, 1×10^4 CFU per well of C. albicans were incubated with different peptide concentrations (in serial dilutions of 1:10 and 1:5) starting with […] in a solution of buffer containing 10 mM sodium phosphate at pH 7.4 (3 hours, 37° C.). Serial dilutions were then carried out in 1× Dulbecco's PBS, and samples were plated in triplicate on Sabouraud Dextrose Agar plates, incubated (25° C., 48 hours) and CFUs were counted. C. albicans survival at each peptide concentration was calculated as previously described (Amer et al., supra; de Latour et al., supra), based on the percentage of the number of colonies in each experimental plate relative to the average number of colonies observed for assay cultures lacking peptide. […] In the equation, “Top” and “Bottom” refer to the upper and lower boundaries, and were constrained to values <100% and >0%, respectively. For graphing purposes, samples that had no peptide were plotted at 10^−9 μg/ml peptide. EC50 values were determined by fitting the data from the anti-microbial assays to a standard sigmoidal dose-response curve. Errors were reported based on the standard deviation from the mean of the log EC50 values. 2. Results

[3] = tested on: S. aureus (ATCC 25923); assay: Anti-microbial assay (CFU survival, EC50) against S. aureus; type: cell-based, Staphylococcus aureus; conditions: for EC50 against S. aureus, preliminary studies: Example 4, FIG. 10
Method: S. aureus (ATCC 25923, American Type Culture Collection, Manassas, Va.) was grown in Nutrient Broth (Difco Laboratories, Detroit, Mich.) at pH 7, 37° C., for 24 hours with shaking at 200 rpm. The overnight culture was frozen with 20% glycerol and stored at −80° C. The frozen stock was enumerated (CFU/ml) by dilution plating and growth on Nutrient Agar plates.
For anti-microbial assays, frozen enumerated aliquots were thawed and gently mixed immediately before use. […] Negative control wells contained bacteria with no peptide. […] The EC50 was calculated as previously described (de Latour et al., supra).
Errors were reported based on the standard deviation from the mean of the log10 EC50 values (Gordon et al., supra). 95% confidence intervals were used to determine whether points were statistically different at p=0.05.

[4] = tested on: A. baumannii; conditions: Example 5, Table 9
Method: Anti-microbial activity was determined for each peptide isomer by enumerating the number of viable colony forming units after incubating bacteria in media containing varied concentrations of peptide.

[5] = tested on: B. cereus (ATCC 11778); assay: Anti-microbial performance against B. cereus, with and without FICOLL 70; type: cell-based; conditions: for fold increase in potency against B. cereus: 20% FICOLL 70 versus none
[6] = tested on: P. aeruginosa biofilm; assay: Biofilm production (crystal violet) and growth (OD600) of P. aeruginosa in TSB; type: cell-based, Pseudomonas aeruginosa
Method: Biofilm production was measured as previously described (Durham-Colleran et al. (2010) Microb. Ecol., 59(3):457-465) with the following modifications. P. aeruginosa (1×10^5 CFU) in 200 μl of TSB media (Trypticase Soy Broth) was incubated with peptide at concentrations of 1.0, 0.1, and 0.01 μg/ml for 24 hours at 37° C. (Table 2). Optical density of the cultures (OD600 nm) at 24 hours was determined prior to staining as a measure of bacterial growth. Six wells were used for each peptide concentration (n=6). Biofilm production was measured using the crystal violet stain technique (Durham-Colleran et al., supra).

[7] = tested on: S. aureus biofilm; assay: Biofilm production (crystal violet) and growth (OD600) of S. aureus in TSB; type: cell-based, Staphylococcus aureus
Method: Biofilm production was measured as previously described (Durham-Colleran et al., supra) with the following modifications. […] The positive control was S. aureus in TSB with no peptide. Six wells were used for each peptide concentration (n=6). After 24 hours, the optical densities (OD) of the wells were taken at 600 nm to quantify […]. The biofilm production was measured using the crystal violet stain technique (Durham-Colleran et al., supra). All experiments were repeated at least twice.

[8] = tested on: P. aeruginosa (ATCC 19429); assay: Anti-microbial assay (CFU survival, EC50) against P. aeruginosa; type: cell-based, Pseudomonas aeruginosa; conditions: Example 6, FIG. 16; unit not given
Method: P. aeruginosa (ATCC 19429, American Type Culture Collection, Manassas, Va.) was grown in Nutrient Broth (Difco Laboratories, Detroit, Mich.) at 37° C. for 24 hours with shaking at 200 rpm. The CFU/ml was determined by growth on Nutrient Agar plates. For anti-microbial assays, frozen enumerated aliquots were thawed immediately before use.
Each experiment was repeated at least twice, and a representative experiment is shown, for clarity.

[9] = tested on: P. aeruginosa; assay: Galleria mellonella infection by P. aeruginosa with AMP and antibiotic treatments; type: in vivo; conditions: single dose: 5 μg ciprofloxacin or 10 μg peptide
Method: Galleria mellonella (wax moth caterpillars) were obtained from Vanderhorst Wholesale (Saint Marys, Ohio). Eight to twelve caterpillars of equal size/weight were randomly assigned to each group. A 1 mL tuberculin syringe was used to inject 10 μl of 1×10^3 CFU/ml of P. aeruginosa into each caterpillar via the last left proleg. […] Caterpillar control groups included: injected with only PBS, ciprofloxacin, or AMPs. The insects were then observed daily for their survival status.

[10] = tested on: S. aureus; assay: Biofilm attachment assay; type: cell-based, Staphylococcus aureus; conditions: 1 μg/ml peptide, 1 hour, 37° C.
Method: Biofilm attachment assays were performed in 96-well microtiter plates (BD Falcon 353072) as previously described (Overhage et al., supra). Overnight cultures of S. aureus were grown in TSB to an OD600 of about 1.0. […] The plates were incubated (1 hour, 37° C.) to allow the S. aureus to adhere to the wells. The wells were washed and OD600 measurements were taken, as in the biofilm production experiments, and the average absorbance for each treatment was determined (n=16).

[11] = tested on: P. aeruginosa biofilm; conditions: Overhage et al.; cited from earlier work

| Compound | Average EC50, E. coli ([1]; 0% FICOLL 70) [µg/mL] | Average EC50, E. coli ([1]; 5% FICOLL 70) [µg/mL] | Average EC50, E. coli ([1]; 10% FICOLL 70) [µg/mL] | Average EC50, E. coli ([1]; 15% FICOLL 70, performed once) [µg/mL] | Average EC50, E. coli ([1]; 20% FICOLL 70) [µg/mL] | fold increase in potency against E. coli [1] [fold] | Average EC50, E. coli ([1]; 30% FICOLL 70, performed once) [µg/mL] | Anti-microbial performance of ATRA-1A isomers (EC50) E coli (ATCC 25922) [1] [µg/mL] | EC50 with 20% FICOLL 70, E. coli [1] [µg/mL] | EC50 without FICOLL 70, E. coli [1] [µg/mL] | EC50 against C. albicans [2] [µg/mL] | Inhibition of C. albicans [2] | EC50 [2] [µM] | EC50 against S. aureus, preliminary studies [3] [µg/mL] | Anti-microbial performance of ATRA-1A isomers (EC50) A. baumannii [4] [µg/mL] | fold increase in potency against B. cereus [5] [fold] | EC50 with 20% FICOLL 70, B. cereus [5] [µg/mL] | EC50 without FICOLL 70, B. cereus [5] [µg/mL] | average EC50 against P. aeruginosa [8] | also measured |
| --- | --- | --- | --- | --- | --- | --- | --- | --- | --- | --- | --- | --- | --- | --- | --- | --- | --- | --- | --- | --- |
| CC(C)C[C@@H](NC(=O)[C@@H](CCCCN)NC(=O)[C@@H](CCCCN)NC(=O)[C@@H](Cc1ccccc1)NC(=O)[C@@H](Cc1ccccc1)NC(=O)[C@@H](CCCCN)NC(=O)[C@@H](CCCCN)NC(=O)[C@@H](C)NC(=O)[C@@H](CCCNC(=N)N)NC(=O)[C@H](N)CCCCN)C(=O)N[C@H](CCCCN)C(N)=O [D-ATRA-1A] (H-[dK][dR][dA][dK][dK][dF][dF][dK][dK][dL][dK]-NH2; N-terminus assumed) | 1.3 | 0.71 | 0.24 | 0.1 | 0.085 | 13.66 | 0.01 | 1.302 | 0.0850 | 1.302 | 22.10 (≈ 15.6 µM) | consistently seen | 15.6 | 6.97 (≈ 4.91 µM) | 9.73 | 54.34 | 0.0406 | 2.330 | 9.643 (CI 6.5 to 14.2) | fold difference in activities of L- and D-ATRA-1A against S. aureus ([3]; D less effective than L): 30 fold; EC50 against S. aureus, two best data sets ([3]; Example 6, FIGS. 14 and 15, left and right panels): 26.53 µg/mL and 25.02 µg/mL; inhibiting biofilm growth, D- versus L-ATRA-1A ([6]; 1 μg/ml, FIG. 20): more effective at inhibiting biofilm growth; inhibiting biofilm growth, D- versus L-ATRA-1A ([7]; 1 μg/ml, FIG. 20): more effective at inhibiting biofilm growth |
| O=C(O)c1cn(C2CC2)c2cc(N3CCNCC3)c(F)cc2c1=O [ciprofloxacin] | – | – | – | – | – | – | – | – | – | – | – | – | – | – | – | – | – | – | – | effect on survival of infected G. mellonella [9]: effective; survival of P. aeruginosa-infected G. mellonella ([9]; 1×10^3 CFU): 55% |
| GLKLRFEFSKIKGEFLKTPEVRFRDIKLKDNRISVQR [Scrambled LL-37, reference compound] | – | – | – | – | – | – | – | – | – | – | – | – | – | – | – | – | – | – | – | attachment of S. aureus to polystyrene wells [10]: did not decrease; inhibition of biofilm formation ([6]; TSB, any concentration tested (up to 1 μg/ml)): no inhibition of biofilm formation; inhibition of biofilm formation ([7]; TSB, concentrations without anti-microbial activity): no inhibition of biofilm formation |
| GLLRKGGEKIGEKLKKIGQKIKNFFQKLVPQPEQ [mCRAMP] | – | – | – | – | – | – | – | – | – | – | – | – | – | – | – | – | – | – | – | inhibitory effect on biofilm formation, previously known [11]: no inhibitory effect |
| KRAKKFFKKLK-NH2 [ATRA-1A] | 2.9 | 1.6 | 0.86 | 0.64 | 0.42 | 10.66 | 0.29 | 4.323 | 0.420 | 4.232 | 33.38 | consistently seen | 23.5 | 0.27 | 53.25 | 14 | 5.207 | 72.41 | 14.22 (CI 10.4 to 19.4) | EC50 of AMPs against S. aureus ([3]; 3 hours, 37° C., 10 mM sodium phosphate pH 7.4, ± standard deviation): 1.45 ± 1.5 µg/mL; Anti-microbial performance of ATRA-1A isomers (EC50) S. aureus ([3]; Example 5, Table 9): 1.45 µg/mL; EC50 ([3]; converted from μg/ml with molecular weight of TFA salt): 0.62 µM |
